Patent US7725174B2 (priority 2006, dated 2010)

Key:
[1] = tested on: human volunteer subjects; details: in vivo
[2] = tested on: human volunteer subjects; details: one subject
Source text: As with ApEn, these entropy measures compare changes in the time series of raw EEG data as it is generated. However, they are designed to determine qualities about the system which is generating the data. As such, they have potential to impart information about changes in CNS rather than just changes in the EEG. Information can be related about the CNS from a mesoscopic scale to a microscopic scale. […] Correlation dimension has not been used for real time analyses in the past because the computation usually requires large data sets for precise determination of the actual dimension of the data space. (See, Preissl, H., W. Lutzenberger, F. Pulvermuller, and N. Birbaumer, Fractal dimensions of short EEG time series in humans. Neurosci Lett, 1997. 225: p. 77-80.) To address this problem, we used short segments (e.g., 10 seconds) of data to calculate the correlation dimension and averaged the critical distance parameter ε, with each new estimate. Though this limits the accuracy with which signal dimension can be determined, it provides a reasonable estimate that changes as signal complexity changes.
Using the same raw EEG data, Lyapunov exponents of the EEG were also determined. Lyapunov exponents provide a qualitative indicator of signal stability. Unstable signals are sensitive to initial conditions and thus the predictability of their future trajectory is difficult. […]

With `CC(C)c1cccc(C(C)C)c1O` [propofol] the “change in ApEn with drug concentration” value [1] was “decreased”, the “Lyapunov exponent with increasing sedation” value ([2]; FIG. 9) was “tends towards a positive value” and the “changes in correlation dimension by clinical frequency band” value ([2]; awake to deeper levels of sedation, FIG. 8) was “appear in the higher frequency ranges first”.
